Data taken from patent US20130143795A1, “METHOD OF TREATMENT OF HIV OR AIDS” (Adistem Ltd., priority 2010, published 2013).
Where “and” joins values, the source holds several entries; their conditions need not be identical. Equal entries are not always repeated.

Assays:
[1] = test system: CXCR4 coreceptor-trophic HT/92/599 strain of HIV-1; assay: Antiviral assay in fresh human PBMCs, HIV-1 HT/92/599; type: cell-based; conditions: for antiviral activity against HIV-1 HT/92/599 (T-cell tropic): concentrations up to a high test concentration of 500 μM
Method: (§1) The peptide Ac-LKKTETQ-OH was evaluated in fresh human peripheral blood mononuclear cells (PBMCs) against CXCR4 coreceptor-trophic HT/92/599 and the CCR5 coreceptor-trophic BaL subtype B strains of HIV-1. The peptide was added to the cells at 8 hours prior to infection and immediately prior to infection. The AZT control compound was evaluated in parallel with the peptide and yielded EC50 values of 8 and 6 nM against HIV-1HT/92/599 and values of 6 and 10 nM against HIV-1PaL.

[2] = test system: CCR5 coreceptor-trophic BaL subtype B strain of HIV-1; assay: Antiviral assay in fresh human PBMCs, HIV-1 BaL; type: cell-based; conditions: for antiviral activity against HIV-1 BaL (macrophage tropic): concentrations up to a high test concentration of 500 μM
Method: as §1

Pilot trial: body weight = type: in vivo, human; conditions: HIV positive patients, 10 mg s.c. once a week, one value per patient (A-T)
Method: (§2) The peptide Ac-LKKTETQ-OH was the active therapeutic agent investigated in a pilot trial on twenty similar HIV positive men and women, some who had progressed to severe AIDS.
(§3) Each man or women was injected subcutaneously with a composition comprising the peptide Ac-LKKTETQ-OH (10 mg), once a week for 12 weeks. Blood tests for CD4 and CD8-positive cells and HIV viral load (by PCR) and routine pathology were conducted at baseline, 8 weeks and 12 weeks. […] A small drop in blood glucose was seen but this was not determined to be significant.

[3] = test system: CD4-positive white blood cell; assay: Pilot trial: CD4-positive white blood cell counts; type: in vivo, human
Method: as §2, §3

[4] = test system: CD8-positive white blood cell; assay: Pilot trial: CD8-positive white blood cell counts; type: in vivo, human
Method: as §2, §3

HIV = assay: Pilot trial: HIV viral load (by PCR); type: in vivo
Method: as §2, §3

[5] = Pilot trial: routine pathology and adverse effects; type: in vivo, human; conditions: 10 mg s.c. once a week for 12 weeks
Method: as §2, §3

[6] = HIV positive patients and those showing symptoms of AIDS
[7] = HIV positive patients, 10 mg s.c. once a week, 8 weeks, one value per patient (A-T)
[8] = HIV positive patients, 10 mg s.c. once a week, 12 weeks, one value per patient (A-T)

| Compound | EC50 ([1]; two values, evaluated in parallel with peptide added 8 hours prior to and immediately prior to infection, read-out: EC50 against HIV-1HT/92/599) | EC50 ([2]; two values, evaluated in parallel with peptide added 8 hours prior to and immediately prior to infection, read-out: EC50 against HIV-1PaL) | Weight, 8 weeks (Pilot trial: body weight; 8 weeks) | Weight, 12 weeks (Pilot trial: body weight; 12 weeks) | CD4 positive white blood cell counts (summary) [3, 6] | CD4-positive white blood cell count, 8 weeks [3, 7] | CD4-positive white blood cell count, 12 weeks [3, 8] | CD8 positive white blood cell counts (summary) [4, 6] | CD8-positive white blood cell count, 8 weeks [4, 7] | CD8-positive white blood cell count, 12 weeks [4, 8] | viral load (summary) (HIV; [6]) | HIV Viral Load, 8 weeks (HIV; HIV positive patients, 10 mg s.c. once a week, 8 weeks, by PCR, one value per patient (A-T)) | HIV Viral Load, 12 weeks (HIV; HIV positive patients, 10 mg s.c. once a week, 12 weeks, by PCR, one value per patient (A-T)) | adverse effect [5] | Hemoglobin levels, Creatinine, ALT, AST, Alkaline Phos, Bilirubin, GGT, Albumin, Total Protein and globulin tests ([5]; baseline, 8 and 12 weeks) | blood glucose ([5]; not determined to be significant) | antiviral activity against HIV-1 HT/92/599 (T-cell tropic) ([1]; listed as SEQ ID NO: 1) | antiviral activity against HIV-1 HT/92/599 (T-cell tropic) ([1]; listed as SEQ ID NO:1) | antiviral activity against HIV-1 BaL (macrophage tropic) ([2]; listed as SEQ ID NO: 1) | antiviral activity against HIV-1 BaL (macrophage tropic) ([2]; listed as SEQ ID NO:1) |
| --- | --- | --- | --- | --- | --- | --- | --- | --- | --- | --- | --- | --- | --- | --- | --- | --- | --- | --- | --- | --- |
| Cc1cn([C@H]2C[C@H](N=[N+]=[N-])[C@@H](CO)O2)c(=O)[nH]c1=O [AZT, reference compound] | 8 nM and 6 nM | 6 nM and 10 nM |  |  |  |  |  |  |  |  |  |  |  |  |  |  |  |  |  |  |
| Ac-LKKTETQ-OH [Ac-LKKTETQ-OH] |  |  | 92 and 52 and 59 and 71 and 82 and 79 (2×) and 72 (2×) and 60.5 and 50.5 and 58 and 71.5 and 68.5 and 61 and 56 and 55 and 70 and 78 (2×) | 92 and 52 and 72 (4×) and 82 and 79 and 71 (2×) and 51 and 65 and 80 and 69 and 60 and 55 and 58 and 70.5 and 78.5 (2×) | increased | 816 and 415 and 158 and 407 and 456 and 477 and 348 and 381 and 439 and 301 and 335 and 543 and 428 and 466 (2×) and 259 and 471 and 300 and 316 and 602 | 879 and 604 and 175 and 425 and 625 and 662 and 404 and 498 and 510 and 424 and 452 and 749 and 616 and 602 and 368 and 469 and 571 and 430 and 416 and 675 | increased | 980 and 360 and 1310 and 1379 and 1044 and 1296 and 959 and 2120 and 866 and 773 and 594 (2×) and 606 and 939 and 617 and 648 and 456 and 1108 and 1125 | 1330 and 459 and 1718 and 1394 and 1339 and 1226 and 1190 and 2647 and 958 and 800 and 712 and 893 and 983 and 1034 and 880 and 890 and 521 and 1384 and 1201 and 660 | decreased viral load significantly | undetectable (9×) and 28410 copies/ml and 450 copies/ml and 8214 copies/ml and 17616 copies/ml and 15201 copies/ml and 145 copies/ml and 12004 copies/ml and 8781 copies/ml and 200 copies/ml and 98687 copies/ml and 24 copies/ml | undetectable (19×) and 5151 copies/ml | No adverse effect | did not show anything remarkable | small drop | no effect | did not demonstrate antiviral activity | no effect | did not demonstrate antiviral activity |
